According to EP4745135A1 (Gluetacs Therapeutics (Shanghai) Co., Ltd., priority 2023, dated 2025):

What was measured:
[1] = test system: Human multiple myeloma cell (MM.1S); assay: Tumor cell proliferation inhibition (CellTiter-Meiluncell luminescent cell viability assay); conditions: Homo sapiens, MM1.S, 96 h; for inhibition at 0.01 µM: read-out: Inhibition Rate at 10 nM (%); for inhibition at 0.5 µM: read-out: Inhibition Rate at 500 nM (%)
GSPT1 = assay: Western blot, degradation of substrate protein in hPBMCs; assay type: cell-based, Human
[2] = test system: Human myeloid monocytic leukemia cell (MV-4-11); assay: Tumor cell proliferation inhibition (CellTiter-Meiluncell luminescent cell viability assay); conditions: MV4-11, 96 h; for inhibition at 0.01 µM: read-out: Inhibition Rate at 10 nM (%); for inhibition at 0.5 µM: read-out: Inhibition Rate at 500 nM (%)
[3] = test system: Human multiple myeloma peripheral blood B lymphocyte cell (RPMI-8226); assay: as above; conditions: RPMI-8226, 96 h; for inhibition at 0.01 µM: read-out: Inhibition Rate at 10 nM (%); for inhibition at 0.5 µM: read-out: Inhibition Rate at 500 nM (%)
[4] = molecular target: T1, human Cereblon WT GST-tagged protein (Homo sapiens, UniProt Q96SW2); assay: CRBN-binding affinity, HTRF (CEREBLON BINDING kit); conditions: for inhibition at 0.5 µM: read-out: Inhibition Rate at 0.5 µM (%); for inhibition at 2 µM: read-out: Inhibition Rate at 2 µM (%)
T1 construct: purchased CISBIO 64BDCRBNPEH
T1 sequence (Q96SW2 whole entry): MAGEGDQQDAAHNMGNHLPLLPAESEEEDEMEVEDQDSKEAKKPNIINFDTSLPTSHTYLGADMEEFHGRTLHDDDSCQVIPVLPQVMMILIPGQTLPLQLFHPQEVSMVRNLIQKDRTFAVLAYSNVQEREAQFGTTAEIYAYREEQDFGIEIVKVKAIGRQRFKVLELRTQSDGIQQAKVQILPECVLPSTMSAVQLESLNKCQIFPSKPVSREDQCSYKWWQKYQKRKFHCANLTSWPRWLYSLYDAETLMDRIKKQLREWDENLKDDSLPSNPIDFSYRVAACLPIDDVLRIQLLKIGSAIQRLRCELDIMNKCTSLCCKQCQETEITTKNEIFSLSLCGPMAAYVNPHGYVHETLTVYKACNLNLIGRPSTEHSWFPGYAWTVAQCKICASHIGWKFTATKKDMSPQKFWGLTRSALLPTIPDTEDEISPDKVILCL

[5] = test system: Human acute T lymphocytic leukemia cell (Molt4); assay: Tumor cell proliferation inhibition (CellTiter-Meiluncell luminescent cell viability assay); conditions: MOLT-4, 96 h; for inhibition at 0.01 µM: read-out: Inhibition Rate at 10 nM (%); for inhibition at 0.5 µM: read-out: Inhibition Rate at 500 nM (%)
IKZF1 = molecular target: T2, IKZF1 (Homo sapiens, UniProt Q13422+Q96SW2); assay: Western blot, degradation of substrate protein in hPBMCs; assay type: cell-based
T2 construct: effects of the compounds of the present disclosure on the expression of target proteins in cells; endogenous in cells; host or cells: human PBMCs (Milecell Biotechnologies)
T2 sequence (Q13422 whole entry): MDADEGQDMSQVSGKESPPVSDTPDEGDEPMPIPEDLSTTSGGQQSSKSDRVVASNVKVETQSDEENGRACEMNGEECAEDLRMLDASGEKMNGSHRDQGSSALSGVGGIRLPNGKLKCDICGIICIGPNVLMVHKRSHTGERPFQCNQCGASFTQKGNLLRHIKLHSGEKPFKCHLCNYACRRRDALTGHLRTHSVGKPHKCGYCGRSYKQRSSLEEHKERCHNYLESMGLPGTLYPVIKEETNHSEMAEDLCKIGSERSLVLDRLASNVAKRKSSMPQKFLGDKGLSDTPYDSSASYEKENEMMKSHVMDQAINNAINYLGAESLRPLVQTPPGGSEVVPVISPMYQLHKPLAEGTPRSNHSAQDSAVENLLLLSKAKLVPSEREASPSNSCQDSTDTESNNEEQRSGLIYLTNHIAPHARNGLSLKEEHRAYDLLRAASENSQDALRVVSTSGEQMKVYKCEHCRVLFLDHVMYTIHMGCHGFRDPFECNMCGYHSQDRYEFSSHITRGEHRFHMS
T2 sequence (Q96SW2 whole entry): as the sequence (Q96SW2 whole entry) above
T2 sequence (Q16531 whole entry partner): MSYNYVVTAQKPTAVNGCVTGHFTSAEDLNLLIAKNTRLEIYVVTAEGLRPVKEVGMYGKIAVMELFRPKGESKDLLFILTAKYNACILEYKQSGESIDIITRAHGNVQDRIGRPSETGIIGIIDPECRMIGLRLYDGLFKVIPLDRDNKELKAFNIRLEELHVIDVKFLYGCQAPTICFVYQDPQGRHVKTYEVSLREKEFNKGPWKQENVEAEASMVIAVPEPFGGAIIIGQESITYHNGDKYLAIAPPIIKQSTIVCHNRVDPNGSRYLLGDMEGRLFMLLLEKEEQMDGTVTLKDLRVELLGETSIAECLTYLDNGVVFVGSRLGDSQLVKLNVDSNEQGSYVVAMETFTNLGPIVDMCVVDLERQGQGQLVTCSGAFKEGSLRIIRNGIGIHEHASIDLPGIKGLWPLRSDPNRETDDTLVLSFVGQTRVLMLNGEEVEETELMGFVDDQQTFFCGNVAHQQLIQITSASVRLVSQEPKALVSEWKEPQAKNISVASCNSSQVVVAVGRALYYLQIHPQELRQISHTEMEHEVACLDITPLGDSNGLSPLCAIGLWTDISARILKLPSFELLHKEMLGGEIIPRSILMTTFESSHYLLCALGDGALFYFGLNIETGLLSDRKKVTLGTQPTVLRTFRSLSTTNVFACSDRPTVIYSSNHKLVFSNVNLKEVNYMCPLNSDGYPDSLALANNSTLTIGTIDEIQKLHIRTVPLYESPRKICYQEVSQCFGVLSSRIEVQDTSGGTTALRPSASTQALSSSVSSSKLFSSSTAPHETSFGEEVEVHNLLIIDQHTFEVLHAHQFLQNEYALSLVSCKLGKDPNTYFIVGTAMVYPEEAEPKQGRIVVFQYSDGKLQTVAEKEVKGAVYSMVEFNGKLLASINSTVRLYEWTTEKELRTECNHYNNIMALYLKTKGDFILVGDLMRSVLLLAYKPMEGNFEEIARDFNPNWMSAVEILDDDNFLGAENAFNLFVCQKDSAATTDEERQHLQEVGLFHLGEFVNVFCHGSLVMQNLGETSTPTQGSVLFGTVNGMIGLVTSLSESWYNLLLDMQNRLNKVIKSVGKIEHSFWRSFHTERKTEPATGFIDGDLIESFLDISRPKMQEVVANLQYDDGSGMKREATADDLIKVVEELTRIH

WEE1 = molecular target: T3, WEE1 (Homo sapiens, UniProt P30291+Q96SW2); assay: as above; assay type: cell-based
T3 construct: effects of the compounds of the present disclosure on the expression of target proteins in cells; endogenous in cells; host or cells: human PBMCs (Milecell Biotechnologies)
T3 sequence (P30291 whole entry): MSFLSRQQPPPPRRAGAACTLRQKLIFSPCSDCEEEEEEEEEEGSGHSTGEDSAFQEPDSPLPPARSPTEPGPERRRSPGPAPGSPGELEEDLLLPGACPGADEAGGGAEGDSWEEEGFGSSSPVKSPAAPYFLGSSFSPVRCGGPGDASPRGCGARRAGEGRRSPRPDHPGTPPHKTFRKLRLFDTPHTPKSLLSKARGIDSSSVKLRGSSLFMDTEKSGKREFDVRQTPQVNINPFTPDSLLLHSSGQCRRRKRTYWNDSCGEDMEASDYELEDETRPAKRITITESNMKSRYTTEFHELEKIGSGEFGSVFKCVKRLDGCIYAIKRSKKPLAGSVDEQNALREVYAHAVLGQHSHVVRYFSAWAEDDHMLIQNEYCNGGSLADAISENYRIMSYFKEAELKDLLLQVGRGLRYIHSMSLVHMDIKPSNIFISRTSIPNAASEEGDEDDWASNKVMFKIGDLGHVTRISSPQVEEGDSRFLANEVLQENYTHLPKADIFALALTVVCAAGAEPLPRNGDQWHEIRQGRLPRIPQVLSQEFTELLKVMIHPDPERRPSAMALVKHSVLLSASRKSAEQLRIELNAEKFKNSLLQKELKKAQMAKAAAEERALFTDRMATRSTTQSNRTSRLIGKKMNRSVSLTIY
T3 sequence (Q96SW2 whole entry): as the sequence (Q96SW2 whole entry) above
T3 sequence (Q16531 whole entry partner): as the sequence (Q16531 whole entry partner) above

IKZF3 = molecular target: T4, IKZF3 (Homo sapiens, UniProt Q96SW2+Q9UKT9); assay: as above; assay type: cell-based
T4 construct: effects of the compounds of the present disclosure on the expression of target proteins in cells; endogenous in cells; host or cells: human PBMCs (Milecell Biotechnologies)
T4 sequence (Q9UKT9 whole entry): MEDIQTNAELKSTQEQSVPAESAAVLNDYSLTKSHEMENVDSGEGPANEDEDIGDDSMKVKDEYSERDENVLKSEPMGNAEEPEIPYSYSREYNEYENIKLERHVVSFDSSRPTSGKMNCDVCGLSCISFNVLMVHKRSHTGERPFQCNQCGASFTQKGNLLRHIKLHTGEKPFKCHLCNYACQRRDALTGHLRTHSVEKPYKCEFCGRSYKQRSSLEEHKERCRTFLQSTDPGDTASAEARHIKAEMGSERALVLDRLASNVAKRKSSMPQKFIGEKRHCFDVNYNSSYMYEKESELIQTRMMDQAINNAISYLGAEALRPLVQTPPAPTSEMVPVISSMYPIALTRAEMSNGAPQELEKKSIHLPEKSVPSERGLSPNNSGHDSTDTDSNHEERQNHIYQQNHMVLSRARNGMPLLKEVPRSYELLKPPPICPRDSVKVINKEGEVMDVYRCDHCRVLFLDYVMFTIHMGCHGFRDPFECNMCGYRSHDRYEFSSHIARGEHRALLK
T4 sequence (Q96SW2 whole entry): as the sequence (Q96SW2 whole entry) above
T4 sequence (Q16531 whole entry partner): as the sequence (Q16531 whole entry partner) above

CK1α = molecular target: T5, CK1α (Homo sapiens, UniProt P48729+Q96SW2); assay: as above; assay type: cell-based
T5 construct: effects of the compounds of the present disclosure on the expression of target proteins in cells; endogenous in cells; host or cells: human PBMCs (Milecell Biotechnologies)
T5 sequence (P48729 whole entry): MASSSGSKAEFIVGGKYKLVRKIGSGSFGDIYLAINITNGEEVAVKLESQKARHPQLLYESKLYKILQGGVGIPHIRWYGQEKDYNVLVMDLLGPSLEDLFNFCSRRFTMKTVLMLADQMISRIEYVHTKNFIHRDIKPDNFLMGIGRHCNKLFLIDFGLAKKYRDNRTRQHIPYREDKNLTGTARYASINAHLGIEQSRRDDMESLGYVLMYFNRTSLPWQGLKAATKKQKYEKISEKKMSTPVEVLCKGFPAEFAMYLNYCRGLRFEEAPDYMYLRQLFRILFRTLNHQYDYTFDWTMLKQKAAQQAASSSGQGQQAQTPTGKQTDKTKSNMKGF
T5 sequence (Q96SW2 whole entry): as the sequence (Q96SW2 whole entry) above
T5 sequence (Q16531 whole entry partner): as the sequence (Q16531 whole entry partner) above

IKZF2 = molecular target: T6, IKZF2 (Homo sapiens, UniProt Q96SW2+Q9UKS7); assay: as above; assay type: cell-based
T6 construct: effects of the compounds of the present disclosure on the expression of target proteins in cells; endogenous in cells; host or cells: human PBMCs (Milecell Biotechnologies)
T6 sequence (Q9UKS7 whole entry): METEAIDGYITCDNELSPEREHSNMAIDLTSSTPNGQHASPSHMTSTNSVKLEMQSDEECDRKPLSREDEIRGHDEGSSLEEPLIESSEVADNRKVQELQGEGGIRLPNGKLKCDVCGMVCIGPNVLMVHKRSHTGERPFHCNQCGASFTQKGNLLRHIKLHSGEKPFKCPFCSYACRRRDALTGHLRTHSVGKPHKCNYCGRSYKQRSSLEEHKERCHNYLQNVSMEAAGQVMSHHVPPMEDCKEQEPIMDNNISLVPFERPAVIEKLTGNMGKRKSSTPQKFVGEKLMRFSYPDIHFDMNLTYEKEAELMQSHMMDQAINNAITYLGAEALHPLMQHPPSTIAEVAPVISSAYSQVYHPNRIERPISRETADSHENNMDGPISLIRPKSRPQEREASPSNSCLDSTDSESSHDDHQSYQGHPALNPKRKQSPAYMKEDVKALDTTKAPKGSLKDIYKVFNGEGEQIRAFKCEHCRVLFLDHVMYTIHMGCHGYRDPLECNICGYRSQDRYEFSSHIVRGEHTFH
T6 sequence (Q96SW2 whole entry): as the sequence (Q96SW2 whole entry) above
T6 sequence (Q16531 whole entry partner): as the sequence (Q16531 whole entry partner) above

[6] = test system: Human breast cancer cell (MCF-7); assay: Tumor cell proliferation inhibition (CellTiter-Meiluncell luminescent cell viability assay); conditions: MCF7, 96 h; for inhibition at 0.01 µM: read-out: Inhibition Rate at 10 nM (%); for inhibition at 0.5 µM: read-out: Inhibition Rate at 500 nM (%)
[7] = 24 hours treatment, compounds at 50 nM and 500 nM (concentration behind the class not stated)
[8] = Western blot, 24 hours of compound treatment, compounds tested at 50 nM and 500 nM (concentration for the table not stated)

Row | inhibition at 0.5 µM [4] | inhibition at 2 µM [4] | SMILES | inhibition at 0.01 µM [1] | inhibition at 0.5 µM [1] | GSPT1 substrate protein remaining % (GSPT1; [7]) | inhibition at 0.01 µM [2] | inhibition at 0.5 µM [2] | inhibition at 0.01 µM [3] | inhibition at 0.5 µM [3] | inhibition at 0.01 µM [5] | inhibition at 0.5 µM [5] | IKZF 1 substrate protein remaining % (IKZF1; [7]) | Wee1 substrate protein remaining % (WEE1; [7]) | IKZF3 substrate protein remaining % (IKZF3; [7]) | GSPT1 substrate protein remaining % (GSPT1; [8]) | IKZF 1 substrate protein remaining % (IKZF1; [8]) | Wee1 substrate protein remaining % (WEE1; [8]) | IKZF3 substrate protein remaining % (IKZF3; [8]) | CK1α substrate protein remaining % (CK1α; [8]) | IKZF2 substrate protein remaining % (IKZF2; [8]) | other results
1 | 40 to 53% | 80 to 100% | O=C1CCC(N2Cc3cc(CN4CC=C(c5cccc6c(F)cccc56)CC4)ccc3C2=S)C(=O)N1 (stereo not drawn) [GT-09276, 3-(5-((4-(5-fluoronaphthalen-1-yl)-3,6-dihydropyridin-1(2H)-yl)methyl)-1-thioxoisoindolin-2-yl)piperidine-2,6-dione] | 70 to 80% | 80 to 100% | A (0% ≤ substrate protein remaining % ≤ 80%) | 80 to 100% | 80 to 100% | 20 to 30% | 70 to 80% | 70 to 80% | 70 to 80% | B (80%< substrate protein remaining %≤ 100%) | A (0% ≤ substrate protein remaining % ≤ 80%) | A (0% ≤ substrate protein remaining % ≤ 80%) | – | – | – | – | – | – | CK1α substrate protein remaining % (CK1α; [7]): A (0% ≤ substrate protein remaining % ≤ 80%); IKZF2 substrate protein remaining % (IKZF2; [7]): A (0% ≤ substrate protein remaining % ≤ 80%); inhibition at 0.01 µM [6]: 30 to 40%; inhibition at 0.5 µM [6]: 80 to 100%
2 | 60 to 80% | 80 to 100% | O=C1CCC(N2Cc3cc(CN4CC=C(c5n[nH]c6cc(F)ccc56)CC4)ccc3C2=S)C(=O)N1 (stereo not drawn) [GT-09270, 3-(5-((4-(6-fluoro-1H-indazol-3-yl)-3,6-dihydropyridin-1(2H)-yl)methyl)-1-thioxoisoindolin-2-yl)piperidine-2,6-dione] | 50 to 60% | 80 to 100% | B (80%< substrate protein remaining %≤ 100%) | 80 to 100% | 80 to 100% | 20 to 30% | 70 to 80% | 70 to 80% | 80 to 100% | A (0% ≤ substrate protein remaining % ≤ 80%) | A (0% ≤ substrate protein remaining % ≤ 80%) | B (80%< substrate protein remaining %≤ 100%) | – | – | – | – | – | – | CK1α substrate protein remaining % (CK1α; [7]): A (0% ≤ substrate protein remaining % ≤ 80%); IKZF2 substrate protein remaining % (IKZF2; [7]): B (80%< substrate protein remaining %≤ 100%); inhibition at 0.01 µM [6]: 10 to 20%; inhibition at 0.5 µM [6]: 70 to 80%
3 | 60 to 80% | 80 to 100% | O=C1CCC(N2Cc3cc(CN4CCN(c5n[nH]c6cc(F)ccc56)CC4)ccc3C2=S)C(=O)N1 (stereo not drawn) [GT-09260, 3-(5-((4-(6-fluoro-1H-indazol-3-yl)piperazin-1-yl)methyl)-1-thioxoisoindolin-2-yl)piperidine-2,6-dione] | 10 to 20% | 80 to 100% | A (0% ≤ substrate protein remaining % ≤ 80%) | 18 to 25% | 80 to 100% | 5 to 10% | 40 to 50% | 20 to 30% | 80 to 100% | B (80%< substrate protein remaining %≤ 100%) | B (80%< substrate protein remaining %≤ 100%) | B (80%< substrate protein remaining %≤ 100%) | – | – | – | – | – | – | CK1α substrate protein remaining % (CK1α; [7]): B (80%< substrate protein remaining %≤ 100%); IKZF2 substrate protein remaining % (IKZF2; [7]): B (80%< substrate protein remaining %≤ 100%)

The remaining lines, values behind:

Row | SMILES | inhibition at 0.5 µM [4] | inhibition at 2 µM [4] | inhibition at 0.01 µM [1] | inhibition at 0.5 µM [1] | GSPT1 substrate protein remaining % (GSPT1; [7]) | inhibition at 0.01 µM [2] | inhibition at 0.5 µM [2] | inhibition at 0.01 µM [3] | inhibition at 0.5 µM [3] | inhibition at 0.01 µM [5] | inhibition at 0.5 µM [5] | IKZF 1 substrate protein remaining % (IKZF1; [7]) | Wee1 substrate protein remaining % (WEE1; [7]) | IKZF3 substrate protein remaining % (IKZF3; [7]) | GSPT1 substrate protein remaining % (GSPT1; [8]) | IKZF 1 substrate protein remaining % (IKZF1; [8]) | Wee1 substrate protein remaining % (WEE1; [8]) | IKZF3 substrate protein remaining % (IKZF3; [8]) | CK1α substrate protein remaining % (CK1α; [8]) | IKZF2 substrate protein remaining % (IKZF2; [8]) | other results
4 | O=C1CCC(N2Cc3cc(CN4CCN(c5cccc(Br)c5)CC4)ccc3C2=S)C(=O)N1 (stereo not drawn) [GT-08238, 3-(5-((4-(3-bromophenyl)piperazin-1-yl)methyl)-1-thioxoisoindolin-2-yl)piperidine-2,6-dione] | 53 to 60% | 80 to 100% | 70 to 80% | 70 to 80% | – | 5 to 10% | 80 to 100% | 20 to 30% | 50 to 60% | 30 to 40% | 80 to 100% | – | – | – | A (0% ≤ substrate protein remaining % ≤ 80%) | B (80%< substrate protein remaining %≤ 100%) | B (80%< substrate protein remaining %≤ 100%) | B (80%< substrate protein remaining %≤ 100%) | B (80%< substrate protein remaining %≤ 100%) | B (80%< substrate protein remaining %≤ 100%) | –
5 | O=C1CCC(N2Cc3cc(CN4CC=C(c5cncc(Cl)c5Cl)CC4)ccc3C2=S)C(=O)N1 (stereo not drawn) [GT-08489, 3-(5-((4,5-dichloro-3',6'-dihydro-[3,4'-bipyridin]-1'(2'H)-yl)methyl)-1-thioxoisoindolin-2-yl)piperidine-2,6-dione] | 60 to 80% | 80 to 100% | 10 to 20% | 80 to 100% | – | 30 to 40% | 80 to 100% | 0 to 5% | 70 to 80% | 0 to 5% | 80 to 100% | – | – | – | A (0% ≤ substrate protein remaining % ≤ 80%) | B (80%< substrate protein remaining %≤ 100%) | A (0% ≤ substrate protein remaining % ≤ 80%) | A (0% ≤ substrate protein remaining % ≤ 80%) | B (80%< substrate protein remaining %≤ 100%) | A (0% ≤ substrate protein remaining % ≤ 80%) | inhibition at 0.5 µM [6]: 50 to 60%
6 | O=C1CCC(N2Cc3cc(CN4CC=C(c5ccnc(Cl)c5Cl)CC4)ccc3C2=S)C(=O)N1 (stereo not drawn) [GT-08482, 3-(5-((2',3'-dichloro-3,6-dihydro-[4,4'-bipyridin]-1(2H)-yl)methyl)-1-thioxoisoindolin-2-yl)piperidine-2,6-dione] | 60 to 80% | 80 to 100% | 50 to 60% | 80 to 100% | – | 40 to 60% | 80 to 100% | 10 to 20% | 60 to 70% | -5 to 0% | 80 to 100% | – | – | – | A (0% ≤ substrate protein remaining % ≤ 80%) | B (80%< substrate protein remaining %≤ 100%) | A (0% ≤ substrate protein remaining % ≤ 80%) | B (80%< substrate protein remaining %≤ 100%) | B (80%< substrate protein remaining %≤ 100%) | B (80%< substrate protein remaining %≤ 100%) | –
7 | O=C1CCC(N2Cc3cc(CN4CCC(c5cccc(Br)c5)CC4)ccc3C2=S)C(=O)N1 (stereo not drawn) [GT-08617, 3-(5-((4-(3-bromophenyl)piperidin-1-yl)methyl)-1-thioxoisoindolin-2-yl)piperidine-2,6-dione] | 40 to 53% | 80 to 100% | 30 to 40% | 80 to 100% | – | 5 to 10% | 80 to 100% | 10 to 20% | 50 to 60% | 20 to 30% | 80 to 100% | – | – | – | A (0% ≤ substrate protein remaining % ≤ 80%) | B (80%< substrate protein remaining %≤ 100%) | B (80%< substrate protein remaining %≤ 100%) | B (80%< substrate protein remaining %≤ 100%) | B (80%< substrate protein remaining %≤ 100%) | B (80%< substrate protein remaining %≤ 100%) | –
